Reference: patent publication US20240409934A1, “FOXO1-TARGETED THERAPY FOR THE TREATMENT OF CANCER” (BOARD OF REGENTS, THE UNIVERSITY OF TEXAS SYSTEM, priority 2021, published 2024)

Columns and labels:
MDA-MB-468 = assay: Colony formation assay (crystal violet); format: cell-based; details: treated five days
A172 = assay: Colony formation assay (crystal violet); format: cell-based; details: treated five days
Procedure: (§1) Cell culture and drug treatments. Cell lines were obtained from ATCC (American Type Culture Collection, Manassas, VA) and grown under standard conditions (5% CO2, 10% FBS (fetal bovine serum), with 5% antifungal/antibacterial). Cell lines were tested for Mycoplasma using the MycoAlert Mycoplasma Detection Kit (Lonza, Basel Switzerland, cat: LT07-218); all experiments were done with mycoplasma negative cells. U87MG cells were propagated in MEM (Minimal Essential Medium). BT549 and DBTRG cells were propagated in RPMI (Roswell Park Memorial Institute 1640 Medium). LN18, U118MG, A172 and LN229 cells were propagated in DMEM (Dulbecco's Modified Eagle Medium). Neurosphere/cancer stem cell cultures for U87MG and BT549 cell lines were plated with 40,000 cells per mL in 3D Tumorsphere Medium XF (Sigma cat: C-28070, Burlington, MA). BT549 cancer stem cell cultures were supplemented with 1XB27 XenoFree CTS (Gibco/Thermo Fisher Waltham, MA, USA). AS1842856 was purchased from Calbiochem (Danvers, MA) and utilized at 200 nM, 500 nM and 1 μM final concentrations as indicated. AS1708727 was purchased from MedChem Express (Monmouth Junction, NJ) and was used at 0.5 μM, 1.0 µM and 2.0 μM concentrations. 5-aza-2′-deoxycytidine (5-AZA) was purchased from Millipore/Sigma (Burlington, MA) and utilized at a final concentration of 3 μM. Cells were plated at a density of 2,700 cells per mL and were treated five days with indicated drug. Treatments were investigated in triplicate (in numerous independent experiments) and stained with crystal violet. Plates were aspirated of media then each well was washed with 1.0 mL of 1x phosphate buffered saline (PBS) once before being stained with 1.0 mL of crystal violet stain (0.5% crystal violet in buffered formalin) and incubated for 15 minutes. The stain was aspirated, and wells were washed 3 times with 0.5 mL of 1x PBS. After collections were completed, crystal violet-stained plates were solubilized using 0.5 mL on each well of 10% acetic acid and placed on shaker for 1 hour. Solubilized samples were transferred to 96 well plates and quantified on a spectrophotometer at 590 nm. Quantified plates were analyzed with a Tukey test. Error bars were added using the standard deviation. Cells were plated at 2,700 cells per mL and were treated five days with the indicated drug. Treatments were investigated in triplicate (in numerous independent experiments) and stained with crystal violet. Plates were aspirated of media, then each well was washed with 1.0 mL of 1× phosphate-buffered saline (PBS) once before being stained with 1.0 mL of crystal violet stain (0.5% crystal violet in buffered formalin) and incubated for 15 minutes. The stain was aspirated, and cells were washed three times with 0.5 mL of 1×PBS. After collections were completed, crystal violet-stained plates were solubilized using 0.5 mL on each well of 10% acetic acid and placed on a shaker for 1 hour. Solubilized samples were transferred to 96 well plates and quantified on a spectrophotometer at 590 nm using iMark Microplate Absorbance Reader (Bio-Rad, Hercules, CA). Quantified plates were analyzed with a Tukey Test. Error bars were added using the standard deviation.

BT549 [1] = assay: Colony formation assay (crystal violet); format: cell-based; details: treated five days
Procedure: as §1

DBTRG = assay: Colony formation assay (crystal violet); format: cell-based; details: treated five days
Procedure: as §1

LN18 = assay: Colony formation assay (crystal violet); format: cell-based; details: treated five days
Procedure: as §1

LN229 [2] = assay: Colony formation assay (crystal violet); format: cell-based; details: treated five days
Procedure: as §1

SW480 = assay: Colony formation assay (crystal violet); format: cell-based; details: treated five days
Procedure: [The procedure below names another cell line; the source lists this cell line under the same test.] as §1

U87MG cells = assay: Colony formation assay (crystal violet); format: cell-based
Procedure: as §1

BT549 cells = assay: Propidium iodide / FITC-Annexin V flow cytometry; format: cell-based; details: 1 μM, 48 hours
Procedure: (§2) FIGS. 3A-3D: FOXO1 Inhibitor Treatment led to Apoptosis. (FIGS. 3A-3C) LN229 and BT549 cells were treated with 1 μM AS1842856 and were stained with propidium iodide and FITC-Annexin V followed by flow cytometric analyses. […] (FIG. 3D) Western blot analyses were performed with BT549 and LN229 samples that were treated with AS1842856. Both cell lines had increased caspase 3 cleavage.
(§3) FOXO1 inhibition led to apoptosis induction based on Caspase 3 cleavage and flow cytometric analyses. To clarify the impact of FOXO1 on BBC and GBM cell viability, BT549 and LN229 cells were treated with AS1842856 for 48 and 72 hours respectively.

LN229 cells = assay: Propidium iodide / FITC-Annexin V flow cytometry; format: cell-based; details: 1 μM, 72 hours
Procedure: as §2, §3

BT549 [3] = assay: Western blot for cleaved caspase 3; format: cell-based
Procedure: (§4) Total protein was obtained from indicated cells by rinsing cells with 1×PBS (phosphate buffered saline) followed by directed lysis in 2× sample buffer (125 mM Tris-HCL at pH 6.8, 2% sodium dodecyl sulfate (SDS), 10% 2-mercaptoethanol, 20% glycerol, 0.05% bromophenol blue, 8 M urea); 2× sample buffer was added to each well and cells scraped with a cell scraper. The lysate was collected from each well, placed into a 1.5 mL microcentrifuge tube and heated for 10 minutes at 95° C. in a dry-bath heat block. Protein lysates were separated by sodium dodecyl sulfate-polyacrylamide gel electrophoresis (SDS-PAGE) at 100V for 1 hour. […] Data was analyzed with NIH Image J. Antibodies were obtained from Cell Signaling Technologies (Danvers, MA): Cleaved Caspase 3 antibody (cat: 94530). […]

LN229 [4] = assay: Western blot for cleaved caspase 3; format: cell-based
Procedure: as §4

FOXO1 = FOXO1 (Homo sapiens, UniProt Q12778); details: cited from earlier work
FOXO1, sequence (Q12778 whole entry, species assumed): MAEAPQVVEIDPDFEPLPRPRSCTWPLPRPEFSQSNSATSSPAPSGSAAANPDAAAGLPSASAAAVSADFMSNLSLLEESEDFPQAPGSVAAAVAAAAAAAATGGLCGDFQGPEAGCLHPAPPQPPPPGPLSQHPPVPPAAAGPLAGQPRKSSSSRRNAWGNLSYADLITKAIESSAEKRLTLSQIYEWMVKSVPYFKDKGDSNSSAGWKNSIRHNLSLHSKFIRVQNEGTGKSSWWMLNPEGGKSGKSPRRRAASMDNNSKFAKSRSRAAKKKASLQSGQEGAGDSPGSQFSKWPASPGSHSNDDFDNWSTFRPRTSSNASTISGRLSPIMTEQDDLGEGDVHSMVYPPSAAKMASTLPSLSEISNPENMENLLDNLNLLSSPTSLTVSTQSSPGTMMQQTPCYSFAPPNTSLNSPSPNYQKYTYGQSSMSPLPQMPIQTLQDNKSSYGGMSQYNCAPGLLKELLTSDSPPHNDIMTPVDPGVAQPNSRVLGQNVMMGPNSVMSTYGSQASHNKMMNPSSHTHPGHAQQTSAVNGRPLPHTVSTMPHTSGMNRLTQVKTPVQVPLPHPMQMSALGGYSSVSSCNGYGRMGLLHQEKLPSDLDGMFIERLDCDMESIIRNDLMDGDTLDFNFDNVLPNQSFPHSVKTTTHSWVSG

**Q.** For `CCn1cc(C(=O)O)c(=O)c2c(N)c(F)c(NC3CCCCC3)cc21` [AS1842856, 5-Amino-7-(cyclohexylamino)-1-ethyl-6-fluoro-4-oxo-1,4-dihydroquinoline-3-carboxylic acid], which colony formation (MDA-MB-468) is on record?
**A.** fewer cells with 200 nM drug treatment with further reductions using 500 nM and 1 μM drug

**Q.** What about the colony formation (A172) of the same molecule?
**A.** fewer cells with 200 nM drug treatment with further reductions using 500 nM and 1 μM drug

**Q.** And the colony formation (BT549 [1])?
**A.** fewer cells with 200 nM drug treatment with further reductions using 500 nM and 1 μM drug

**Q.** What about the colony formation (DBTRG) of the same molecule?
**A.** fewer cells with 200 nM drug treatment with further reductions using 500 nM and 1 μM drug

**Q.** What about the colony formation (LN18) of the same molecule?
**A.** fewer cells with 200 nM drug treatment with further reductions using 500 nM and 1 μM drug

**Q.** And the colony formation (LN229 [2])?
**A.** fewer cells with 200 nM drug treatment with further reductions using 500 nM and 1 μM drug

**Q.** And the colony formation (SW480)?
**A.** Significantly reduced colony formation

**Q.** And the colony number (U87MG cells)?
**A.** colony number was not significantly impacted

**Q.** And the “Annexin V-FITC and/or PI staining (indicators of apoptosis)” value (BT549 cells)?
**A.** positive for Annexin V-FITC and/or PI

**Q.** What about the “Annexin V-FITC and/or PI staining (indicators of apoptosis)” value (LN229 cells) of the same molecule?
**A.** positive for Annexin V-FITC and/or PI

**Q.** What about the “caspase 3 cleavage” value (BT549 [3]) of the same molecule?
**A.** positive for caspase 3 cleavage

**Q.** And the “caspase 3 cleavage” value (LN229 [4])?
**A.** positive for caspase 3 cleavage

**Q.** And the “FOXO1 DNA binding and transactivation” value (FOXO1)?
**A.** reduces DNA binding and transactivation
